Test results reported in publication PMC6561471 (The Lancet. Oncology, 2018).
Entries after “also recorded” stand apart in the source; their conditions may differ.

Experiments:
[1] = system: nasopharyngeal cancer; conditions: pazopanib tablet formulation 800 mg/day, monotherapy; cited from earlier work
[2] = system: patients with recurrent or metastatic HNSCC; assay: phase 1b dose escalation; type: in vivo; conditions: with fixed dose of cetuximab; doses 200-800 mg/day; assessed in cycle 1
[3] = system: patients with recurrent or metastatic HNSCC; assay: adverse events graded by NCI-CTCAE version 4.0, all cycles of treatment
[4] = suspension formulation compared with tablet; cited from earlier work
[5] = system: recurrent or metastatic HNSCC; conditions: single-arm study; cited from earlier work
[6] = system: recurrent or metastatic HNSCC; conditions: first-line treatment; cited from earlier work

Cc1ccc(Nc2nccc(N(C)c3ccc4c(C)n(C)nc4c3)n2)cc1S(N)(=O)=O [pazopanib]
disease control, patients [1]: 55%
maximum tolerated dose of pazopanib [2]: not reached
grade 4 adverse events attributable to pazopanib ([3]; all 31 patients): no grade 4 adverse events
most common grade 3 adverse events attributable to pazopanib ([3]; all cycles): hypertension, anaemia, fatigue, hypoalbuminaemia, and venous thromboembolism; also recorded: hypertension, anaemia, fatigue, hypoalbuminaemia, neutropenia, and diarrhoea
decrease of time taken to reach Cmax (Tmax) [4]: 50%
increase of area under the curve (AUC)(0–72 h) [4]: 33%
increase of maximum plasma concentration (Cmax) [4]: 29%

CNC(=O)c1cc(Oc2ccc(NC(=O)Nc3ccc(Cl)c(C(F)(F)F)c3)cc2)ccn1 [sorafenib]
activity as monotherapy [5]: modest activity

CCN(CC)CCNC(=O)c1c(C)[nH]c(/C=C2\C(=O)Nc3ccc(F)cc32)c1C [sunitinib]
activity as monotherapy [5]: modest activity

bevacizumab
effect of addition of bevacizumab to chemotherapy [6]: improvement of progression-free survival and overall survival
